Experimental data published in patent publication US9242944B2 (UNIVERSITY OF MARYLAND, BALTIMORE, priority 2013, dated 2016).

Biological target: T1, c-Myc-Max heterodimers (Homo sapiens, UniProt P01106)
T1 construct: c-Myc bHLH-ZIP domain (residues 353-437); His6-TEV protease substrate tag; made in house; host or cells: bacteria (pET151 vector for Myc)
Experiment: Electrophoretic mobility shift assay (EMSA) of c-Myc-Max dimerization and DNA binding
Details: Table 1; 100 μM compound; Myc-Max/DNA band intensity relative to control; read-out: Inhibition at 100 μM (%)
Description: The ability of a small-molecule to interfere with c-Myc-Max dimerization is conveniently assessed through the disruption of the c-Myc-Max/DNA ternary complex by an electrophoretic mobility shift assay (EMSA) using fluorescently-labelled DNA, and subsequently quantified by densitometry.(23) Accordingly, a 100-member library was screened for the ability to disrupt the c-Myc-Max dimer.
These were performed essentially as described previously (23). Briefly, Ni^+-agarose-purified His6-tagged c-Myc bHLH-ZIP domain (residues 353-437) was used for all binding assays as was the His6-tagged 151 residue isoform of Max, otherwise referred to as Max(S) (residues 2-151) (21). For each binding reaction, the proteins were allowed to heterodimerize at a concentration of 30 nM each in the presence of 20 nM of a 5′-HEX-tagged double-stranded 22-base pair oligonucleotide 5′-hexachlorofluoresceine-[…]-3′ (SEQ ID NO: 1) containing a consensus c-Myc binding site (CACGTG) and the indicated concentration of small molecule inhibitor. Control reactions contained the same oligonucleotide in the presence of 60 nM of the 160 residue isoform of Max referred to as Max(L) (21). All binding reactions were prepared in a buffer consisting of PBS (pH 7.3), 1 mmol/L EDTA, 0.1% NP40, 5% glycerol, 1 mmol/L DTT, and 0.4 mg/mL bovine serum albumin. Electrophoresis was performed on 8% polyacrylamide/bisacrylamide (80:1) gels in […] (23). Each reaction was run on at least three separate occasions.
EMSAs were performed essentially as described utilizing bacterially-expressed recombinant proteins purified nearly to homogeneity.(23) Experiments with Max homodimers used the His6-tagged 160 amino acid isoform of the protein, termed Max(L), which homodimerizes and binds DNA well. For studies with Myc-Max heterodimers, the His6-tagged 151 residue isoform of Max [Max(S)] was used, which binds DNA well as a heterodimer with Myc but poorly as a homodimer.(23) Recombinant Myc protein, expressed in the pET151 vector, consisted of the His6-TEV protease substrate-tagged 85 amino acid bHLH-ZIP domain. (23) Each protein was purified by Ni-agarose affinity chromatography as previously described. (23) The His6-TEV tag was removed from the Myc protein by TEV protease cleavage followed by re-purification using Ni-agarose affinity chromatography to remove the His6-TEV protease and the cleaved His6-TEV tag as previously described. Binding assays were performed with 30 nM of each protein and 30 nM of a 6-carboxy-2′,4,4′,5′,7,7′-hexachlorofluorescein (HEX)-tagged double-stranded oligonucleotide containing a consensus Myc binding site (IDT, Coralville, Iowa).(23)

T1 sequence (P01106 368-452, one chain of several): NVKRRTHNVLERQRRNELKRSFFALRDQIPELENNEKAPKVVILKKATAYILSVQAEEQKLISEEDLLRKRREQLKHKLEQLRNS

inhibition at 100 µM [%] | SMILES
11 | Cc1ccccc1Nc1ccc([N+](=O)[O-])c2nonc12 [Compound 3e, 7-Nitro-N-(o-tolyl)benzo[c][1,2,5]oxadiazol-4-amine]
~40 | O=[N+]([O-])c1ccc(Nc2ccccc2Br)c2nonc12 [Compound 3f, N-(2-Bromophenyl)-7-nitrobenzo[c][1,2,5]oxadiazol-4-amine]
13 | O=[N+]([O-])c1ccc(Nc2ccccc2O)c2nonc12 [Compound 3g, 2-((7-Nitrobenzo[c][1,2,5]oxadiazol-4-yl)amino)phenol]
0 | COc1ccccc1Nc1ccc([N+](=O)[O-])c2nonc12 [Compound 3h, N-(2-Methoxyphenyl)-7-nitrobenzo[c][1,2,5]oxadiazol-4-amine]
8 | O=C(O)c1ccccc1Nc1ccc([N+](=O)[O-])c2nonc12 [Compound 3i, 2-((7-Nitrobenzo[c][1,2,5]oxadiazol-4-yl)amino)benzoic acid]
0 | O=C(O)c1cccc(Nc2ccc([N+](=O)[O-])c3nonc23)c1 [Compound 3m, 3-((7-Nitrobenzo[c][1,2,5]oxadiazol-4-yl)amino)benzoic acid]

SMILES | inhibition at 100 µM [%]
O=[N+]([O-])c1ccc(NC2CCCCC2)c2nonc12 [Compound 3b, N-Cyclohexyl-7-nitrobenzo[c][1,2,5]oxadiazol-4-amine] | 11
O=[N+]([O-])c1ccc(NCc2ccccc2)c2nonc12 [Compound 3c, N-Benzyl-7-nitrobenzo[c][1,2,5]oxadiazol-4-amine] | 0
O=[N+]([O-])c1ccc(N2CCCCC2)c2nonc12 [Compound 3d, 4-Nitro-7-(piperidin-1-yl)benzo[c][1,2,5]oxadiazole] | 10
O=[N+]([O-])c1ccc(Oc2ccccc2-c2ccccc2)c2nonc12 [Compound 3j, 4-([1,1′-Biphenyl]-2-yloxy)-7-nitrobenzo[c][1,2,5]oxadiazole] | 36

Same assay, conditions: Table 2; 100 μM compound; Myc-Max/DNA band intensity relative to control; read-out: Inhibition at 100 μM (%)

inhibition at 100 µM [%] | SMILES
2 | CC(=O)Nc1ccc(Nc2ccccc2-c2ccccc2)c2nonc12 [Compound 5a, N-(7-([1,1′-Biphenyl]-2-ylamino)benzo[c][1,2,5]oxadiazol-4-yl)acetamide]
25 | O=C(Nc1ccc(Nc2ccccc2-c2ccccc2)c2nonc12)C(F)(F)F [Compound 5b, N-(7-([1,1′-Biphenyl]-2-ylamino)benzo[c][1,2,5]oxadiazol-4-yl)-2,2,2-trifluoroacetamide]
0 | COC(=O)Nc1ccc(Nc2ccccc2-c2ccccc2)c2nonc12 [Compound 5c, Methyl (7-([1,1′-biphenyl]-2-ylamino)benzo[c][1,2,5]oxadiazol-4-yl)carbamate]
17 | O=C(O)CCC(=O)Nc1ccc(Nc2ccccc2-c2ccccc2)c2nonc12 [Compound 5d, 4-((7-([1,1′-Biphenyl]-2-ylamino)benzo[c][1,2,5]oxadiazol-4-yl)amino)-4-oxobutanoic acid]
0 | O=[N+]([O-])c1ccc(Nc2ccccc2-c2ccccc2)cc1 [Compound 7, N-(4-Nitrophenyl)-[1,1′-biphenyl]-2-amine]

SMILES | inhibition at 100 µM [%]
O=C(O)COCC(=O)Nc1ccc(Nc2ccccc2-c2ccccc2)c2nonc12 [Compound 5e, 2-(2-((7-([1,1′-Biphenyl]-2-ylamino)benzo[c][1,2,5]oxadiazol-4-yl)amino)-2-oxoethoxy)acetic acid] | 33

Same assay, conditions: Table 10; 100 μM small-molecule, EMSA; read-out: % Inhibition of c-Myc-Max Dimerization

inhibition at 100 µM [%] | SMILES
44 | N#Cc1ccccc1-c1cc(C(=O)O)ccc1Nc1ccc([N+](=O)[O-])c2nonc12 [Compound 3jc53-7]
23 | N#Cc1cccc(-c2cc(C(=O)O)ccc2Nc2ccc([N+](=O)[O-])c3nonc23)c1 [Compound 3jc53-8]
13 | N#Cc1ccc(-c2cc(C(=O)O)ccc2Nc2ccc([N+](=O)[O-])c3nonc23)cc1 [Compound 3jc53-9]
34 | CCc1ccc(-c2cc(C(=O)O)ccc2Nc2ccc([N+](=O)[O-])c3nonc23)cc1 [Compound 3jc53-10]
0 | CC(C)c1ccc(-c2cc(C(=O)O)ccc2Nc2ccc([N+](=O)[O-])c3nonc23)cc1 [Compound 3jc53-11]
2 | CC(C)(C)c1ccc(-c2cc(C(=O)O)ccc2Nc2ccc([N+](=O)[O-])c3nonc23)cc1 [Compound 3jc53-12]
0 | O=C(O)c1ccc(Nc2ccc([N+](=O)[O-])c3nonc23)c(-c2ccccc2O)c1 [Compound 3jc53-13]
4 | COc1ccc(-c2cc(C(=O)O)ccc2Nc2ccc([N+](=O)[O-])c3nonc23)cc1 [Compound 3jc53-14]
6 | O=C(O)c1ccc(-c2cc(C(=O)O)ccc2Nc2ccc([N+](=O)[O-])c3nonc23)cc1 [Compound 3jc53-15]
0 | Cc1ccccc1-c1cc(Nc2ccc([N+](=O)[O-])c3nonc23)ccc1C(=O)O [Compound 3jc62-1]
0 | Cc1cccc(-c2cc(Nc3ccc([N+](=O)[O-])c4nonc34)ccc2C(=O)O)c1 [Compound 3jc62-2]
0 | Cc1ccc(-c2cc(Nc3ccc([N+](=O)[O-])c4nonc34)ccc2C(=O)O)cc1 [Compound 3jc62-3]
0 | N#Cc1ccccc1-c1cc(Nc2ccc([N+](=O)[O-])c3nonc23)ccc1C(=O)O [Compound 3jc62-4]
8 | N#Cc1cccc(-c2cc(Nc3ccc([N+](=O)[O-])c4nonc34)ccc2C(=O)O)c1 [Compound 3jc62-5]
25 | N#Cc1ccc(-c2cc(Nc3ccc([N+](=O)[O-])c4nonc34)ccc2C(=O)O)cc1 [Compound 3jc62-6]
0 | O=C(O)c1ccc(Nc2ccc([N+](=O)[O-])c3nonc23)cc1-c1ccccc1 [Compound 3jc62-7]
0 | O=C(O)c1ccc(Nc2ccc([N+](=O)[O-])c3nonc23)c(-c2ccc(C(F)(F)F)cc2)c1 [Compound 4jc23-6]

More lines, now with the values behind:

SMILES | inhibition at 100 µM [%]
Cc1cccc(-c2cc(C(=O)O)ccc2Nc2ccc([N+](=O)[O-])c3nonc23)c1 [Compound 3j53-5] | 16
O=C(O)c1ccc(Nc2ccc([N+](=O)[O-])c3nonc23)c(-c2ccccc2)c1 [Compound 3jc42] | 10
O=C(O)c1ccc(Nc2ccc([N+](=O)[O-])c3nonc23)c(-c2ccccc2-c2ccccc2)c1 [Compound 3jc53-1] | 18
O=C(O)c1ccc(Nc2ccc([N+](=O)[O-])c3nonc23)c(-c2cccc(-c3ccccc3)c2)c1 [Compound 3jc53-2] | 0
O=C(O)c1ccc(Nc2ccc([N+](=O)[O-])c3nonc23)c(-c2ccc(-c3ccccc3)cc2)c1 [Compound 3jc53-3] | 41
Cc1ccccc1-c1cc(C(=O)O)ccc1Nc1ccc([N+](=O)[O-])c2nonc12 [Compound 3jc53-4] | 7

Same assay, conditions: Table 11; 100 uM, EMSA; read-out: % Inhibition of c-Myc-Max Dimerization

inhibition at 100 µM [%] | SMILES
0 | O=[N+]([O-])c1ccc(Nc2ccccc2-c2ccccc2)cc1 [SF-3-068]
5 | O=C(O)c1cc(Nc2ccccc2-c2ccccc2)ccc1[N+](=O)[O-] [SF-3-070]
2 | N#Cc1ccc(Nc2ccccc2-c2ccccc2)cc1 [SF-3-078]
0 | N#Cc1cc([N+](=O)[O-])ccc1Nc1ccccc1-c1ccccc1 [SF-3-079]
0 | N#Cc1cc(Nc2ccccc2-c2ccccc2)ccc1[N+](=O)[O-] [SF-3-080]
0 | O=[N+]([O-])c1ccc(Nc2ccccc2-c2ccccc2)nc1 [SF-3-081]

Same assay, conditions: read-out: Inhibition at 100 μM (%), Table 1; 100 μM compound; Myc-Max/DNA band intensity relative to control

SMILES | inhibition at 100 µM [%]
O=[N+]([O-])c1ccc(Nc2ccccc2)c2nonc12 [Compound 3a, 7-Nitro-N-phenylbenzo[c][1,2,5]oxadiazol-4-amine] | 2
O=[N+]([O-])c1ccc(Nc2ccc(-c3ccccc3)cc2)c2nonc12 [Compound 3n] | 28
Cc1ccc(Nc2ccc([N+](=O)[O-])c3nonc23)cc1 [Compound 3o, 7-Nitro-N-(p-tolyl)benzo[c][1,2,5]oxadiazol-4-amine] | 0
